The results in this text go back to PubChem BioAssay (NCI).

SMILES strings stand for the structures.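 Cultured in 96-well plates, cells were exposed to test compound for 48 hours across five concentrations. At the GI50, growth is halved. TGI denotes the concentration required for complete inhibition of growth.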 *1 amine or outer side, *2 acyl side, *3 side chain or, on linkers, in order; H or OH if unused. Where a SMILES comes first, the peptide text is derived from it. Bridges are numbered along the chain shown (N, C = ends). Roman numbers before positions name the chains, in order. [ ]: non-standard residue; d: D form. Actinocin(9to1) = Cc1c2oc3c(C)ccc(C(=O)[*:1])c3nc-2c(C(=O)[*:2])c(N)c1=O; NMeV = CN[CH](C(=O)O)C(C)C; Sar = CNCC(=O)O

Some test systems named below: CCRF-CEM leukemia; DU-145 prostate; EKVX NSCLC; HL-60(TB) leukemia; HOP-92 NSCLC; KM12 colon; MDA-MB-231 breast; NCI-H23 lung; NCI-H460 lung; NCI-H522 lung; NCI/ADR-RES ovarian; SK-MEL-28 melanoma; SK-OV-3 ovarian; SNB-75 CNS; U251 CNS; HCC-2998 colon.
Holding throughout (assay): inhibition of tumour cell growth, NCI panel, 48 h

`CCOC(=O)c1ccc(-c2cc(C)no2)[nH]1`: the TGI in the assay on CCRF-CEM leukemia, with DU-145 prostate, with EKVX NSCLC, in the assay on HL-60(TB) leukemia, in the assay with HOP-92 NSCLC and in the assay on KM12 colon was above 100 µM throughout. The TGI with MDA-MB-231 breast, with NCI-H23 lung, with NCI-H460 lung, with NCI-H522 lung, in the assay on NCI/ADR-RES ovarian and in the assay with SK-MEL-28 melanoma was above 100 µM each time. Moreover, the TGI in the assay with SK-OV-3 ovarian, with SNB-75 CNS and in the assay on U251 CNS was above 100 µM throughout.

Consider `C[C@]12c3c4cc(NC(=O)C(=O)NCc5ccc(-c6ccccn6)nc5)cc3Oc3cc(NC(=O)C(=O)NCc5ccc(-c6ccccn6)nc5)cc(c31)OC1C=C(NC(=O)C(=O)NCc3ccc(-c5ccccn5)nc3)C=C(O4)C12` (some centres not stated), for which the TGI in the assay with CCRF-CEM leukemia is above 100 µM; in the assay with DU-145 prostate, 98.6 µM; with EKVX NSCLC it was 62.4 µM; in the assay on HL-60(TB) leukemia, above 100 µM; in the assay on KM12 colon, above 100 µM; in the assay with MDA-MB-231 breast it was 27.5 µM. Moreover, the TGI in the assay with NCI-H460 lung is above 100 µM; in the assay with NCI-H522 lung, above 100 µM; in the assay on NCI/ADR-RES ovarian, above 100 µM; with SK-MEL-28 melanoma it was above 100 µM; in the assay on SK-OV-3 ovarian, above 100 µM; in the assay on SNB-75 CNS it was 76.3 µM. The molecule further yielded a TGI in the assay on U251 CNS above 100 µM.

`N#C/C(N)=C(\C#N)NC=NCCO`: the TGI in the assay with CCRF-CEM leukemia, in the assay with DU-145 prostate, in the assay with EKVX NSCLC, with HCC-2998 colon, in the assay with HL-60(TB) leukemia and with KM12 colon was above 100 µM each time. Moreover, the TGI in the assay on MDA-MB-231 breast, with NCI-H23 lung, in the assay with NCI-H460 lung, in the assay on NCI-H522 lung, in the assay with NCI/ADR-RES ovarian and with SK-MEL-28 melanoma was above 100 µM each time. The TGI in the assay on SK-OV-3 ovarian, with SNB-75 CNS and in the assay with U251 CNS was above 100 µM in each case.

As for `Nc1ncc2c(n1)-c1ccccc1OC2N1CCCCC1` (configuration not stated), the TGI with CCRF-CEM leukemia, with DU-145 prostate, with EKVX NSCLC, in the assay on HL-60(TB) leukemia, in the assay with HOP-92 NSCLC and in the assay on KM12 colon was above 100 µM throughout. Also, the TGI with MDA-MB-231 breast, in the assay with NCI-H23 lung, in the assay on NCI-H460 lung, in the assay on NCI-H522 lung, in the assay with NCI/ADR-RES ovarian and in the assay with SK-OV-3 ovarian was above 100 µM throughout. In addition, the TGI in the assay on SNB-75 CNS and in the assay with U251 CNS was above 100 µM throughout.

With `Cc1[nH]c(=O)nc2sc(=NC3CCCCC3)n(C3CCCCC3)c(=O)c12`, the TGI with CCRF-CEM leukemia, with DU-145 prostate, in the assay with EKVX NSCLC, in the assay on HCC-2998 colon, with HL-60(TB) leukemia and with HOP-92 NSCLC was above 100 µM in each case. The TGI in the assay with KM12 colon, in the assay with MDA-MB-231 breast, with NCI-H23 lung, in the assay with NCI-H522 lung, in the assay with NCI/ADR-RES ovarian and with SK-MEL-28 melanoma was above 100 µM each time. The TGI with SK-OV-3 ovarian, with SNB-75 CNS and with U251 CNS was above 100 µM throughout.

For `COC(=O)CC(C)(NS(=O)c1ccc(C)cc1)c1ccccc1` (configuration not stated), the TGI with DU-145 prostate, in the assay on EKVX NSCLC, with HCC-2998 colon, with HL-60(TB) leukemia, with HOP-92 NSCLC and with KM12 colon was above 100 µM throughout. Also, the TGI in the assay on MDA-MB-231 breast, in the assay with NCI-H23 lung, in the assay on NCI-H460 lung, in the assay on NCI-H522 lung, in the assay on NCI/ADR-RES ovarian and in the assay on SK-MEL-28 melanoma was above 100 µM each time. In addition, the TGI in the assay on SK-OV-3 ovarian and in the assay with U251 CNS was above 100 µM each time.

Consider `Cc1c2oc3c(C)ccc(C(=O)NC4C(=O)NC(C(C)C)C(=O)N5CCCC5C(=O)N(C)CC(=O)N(C)C(C(C)C)C(=O)OC4C)c3nc-2c(C(=O)NC2C(=O)NC(C(C)C)C(=O)N3CCCC3C(=O)N(C)CC(=O)N(C)C(C(C)C)C(=O)OC2C)c(N)c1=O` (configuration not stated) (I: TVP[Sar][NMeV] / II: TVP[Sar][NMeV]; ester I:1-I:C, II:1-II:C; linker I:N-II:N via Actinocin(9to1); configuration not given here), for which the TGI is 0.0033 µM with CCRF-CEM leukemia; above 1 µM in the assay with DU-145 prostate; above 0.779 µM in the assay with EKVX NSCLC; 0.0272 µM in the assay with HCC-2998 colon; 0.0237 µM in the assay on HL-60(TB) leukemia; 0.0203 µM in the assay with HOP-92 NSCLC. Moreover, the TGI was 0.019 µM in the assay with KM12 colon; above 0.231 µM in the assay on MDA-MB-231 breast; 0.00481 µM in the assay on NCI-H23 lung; 0.00126 µM in the assay on NCI-H460 lung; 0.00137 µM with NCI-H522 lung; above 1 µM in the assay on NCI/ADR-RES ovarian. The figures for the TGI with SK-MEL-28 melanoma, in the assay with SK-OV-3 ovarian and with SNB-75 CNS were 0.0125 µM, above 1 µM and 0.000907 µM, respectively. In addition, the GI50 in the assay with DU-145 prostate is 0.00129 µM; in the assay on HL-60(TB) leukemia, 0.000288 µM.

Take `O=C(O)Cc1ccc([N+](=O)[O-])cc1[N+](=O)[O-]`: the TGI in the assay with CCRF-CEM leukemia, in the assay on DU-145 prostate, in the assay on EKVX NSCLC, in the assay with HL-60(TB) leukemia, in the assay with KM12 colon and in the assay with MDA-MB-231 breast was above 100 µM throughout. In addition, the TGI in the assay with NCI-H23 lung, in the assay with NCI-H460 lung, in the assay on NCI-H522 lung, with NCI/ADR-RES ovarian, in the assay with SK-MEL-28 melanoma and in the assay on SK-OV-3 ovarian was above 100 µM each time. Further, the TGI in the assay on SNB-75 CNS and with U251 CNS was above 100 µM throughout.

On to `C=C1c2nc3ccccc3n2C=C(c2ccc(OC)cc2)N1c1ccc(OC)cc1`, for which the TGI with CCRF-CEM leukemia was above 100 µM; in the assay with DU-145 prostate it was above 100 µM; in the assay with EKVX NSCLC, above 100 µM; in the assay on HCC-2998 colon it was above 100 µM; with HL-60(TB) leukemia it was above 100 µM; with HOP-92 NSCLC, 85.5 µM. Also, the TGI was 44.9 µM in the assay with KM12 colon; 75.9 µM in the assay with MDA-MB-231 breast; 78.2 µM in the assay with NCI-H23 lung; above 100 µM with NCI-H460 lung; above 100 µM with NCI-H522 lung; 31.8 µM with NCI/ADR-RES ovarian. For the same molecule, the TGI came out at 63.4 µM in the assay with SK-OV-3 ovarian, 30.6 µM with SNB-75 CNS and 28.4 µM in the assay with U251 CNS.
